From ChEMBL document CHEMBL1201862, “PubChem BioAssay data set” (2004)
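In this assay, cells in 96-well plates receive the compound at five concentrations for 48 hours. Endpoints are linearly interpolated between the surrounding concentrations. GI50 = concentration required for 50% inhibition of growth.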 Activity calls are given as the source filed them. Rule as the data show it: active = GI50 up to about 1.1 µM and inactive = higher.

Legend:
Assay in all cases: NCI tumour cell line growth inhibition, 48 h
[1] = system: CCRF-CEM
[2] = system: BT-549
[3] = system: SK-OV-3
[4] = system: SN12C
[5] = system: A498
[6] = system: K562
[7] = system: NCI-H460
[8] = system: MDA-MB-231
[9] = system: SR
[10] = system: MDA-N
[11] = system: HT-29
[12] = system: SF-295
[13] = system: UACC-62
[14] = system: SNB-75
[15] = system: OVCAR-3
[16] = system: CAKI-1
[17] = system: U-251
[18] = system: COLO 205
[19] = system: HCC 2998
[20] = system: MCF7
[21] = system: HOP-92
[22] = system: IGROV-1
[23] = system: SK-MEL-28
[24] = system: Hs-578T
[25] = system: RPMI-8226
[26] = system: MDA-MB-435
[27] = system: OVCAR-8
[28] = system: HCT-15
[29] = system: NCI/ADR-RES
[30] = system: NCI-H226
[31] = system: SNB-19
[32] = system: M14
[33] = system: DU-145
[34] = system: HL-60
[35] = system: HOP-62
[36] = system: OVCAR-5
[37] = system: NCI-H522
[38] = system: KM12
[39] = system: RXF 393
[40] = system: SK-MEL-2
[41] = system: T47D
[42] = system: HCT-116
[43] = system: NCI-H23
[44] = system: UO-31
[45] = system: SK-MEL-5
[46] = system: Malme-3M
[47] = system: MOLT-4
[48] = system: PC-3
[49] = system: LOX IMVI
[50] = system: SF-539
[51] = system: SF-268
[52] = system: ACHN
[53] = system: SW-620
[54] = system: TK-10
[55] = system: A549
[56] = system: EKVX
[57] = system: UACC-257
[58] = system: 786-0
[59] = system: OVCAR-4

CN(C)C(=S)/N=C1\SC(=N\c2ccccc2)/C(=N/c2ccccc2)N1c1ccc([N+](=O)[O-])cc1
GI50 [1]: > 100 µM (inactive)
GI50 [2]: > 100 µM (inactive)
GI50 [3]: > 100 µM (inactive)
GI50 [4]: > 100 µM (inactive)
GI50 [5]: > 100 µM (inactive)
GI50 [6]: > 100 µM (inactive)
GI50 [7]: > 100 µM (inactive)
GI50 [8]: > 100 µM (inactive)
GI50 [9]: > 100 µM (inactive)
GI50 [10]: > 100 µM (inactive)
GI50 [11]: > 100 µM (inactive)
GI50 [12]: > 100 µM (inactive)
GI50 [13]: > 100 µM (inactive)
GI50 [14]: > 100 µM (inactive)
GI50 [15]: > 100 µM (inactive)
GI50 [16]: > 100 µM (inactive)
GI50 [17]: > 100 µM (inactive)
GI50 [18]: > 100 µM (inactive)
GI50 [19]: > 100 µM (inactive)
GI50 [20]: > 100 µM (inactive)
GI50 [21]: > 100 µM (inactive)
GI50 [22]: > 100 µM (inactive)
GI50 [23]: > 100 µM (inactive)
GI50 [24]: > 100 µM (inactive)
GI50 [25]: > 100 µM (inactive)
GI50 [26]: > 100 µM (inactive)
GI50 [27]: > 100 µM (inactive)
GI50 [28]: > 100 µM
GI50 [29]: > 100 µM (inactive)
GI50 [30]: > 100 µM (inactive)
GI50 [31]: > 100 µM (inactive)
GI50 [32]: > 100 µM (inactive)
GI50 [33]: > 100 µM (inactive)
GI50 [34]: > 100 µM (inactive)
GI50 [35]: > 100 µM (inactive)
GI50 [36]: > 100 µM (inactive)
GI50 [37]: > 100 µM (inactive)
GI50 [38]: > 100 µM (inactive)
GI50 [39]: 21.8 µM (inactive)
GI50 [40]: > 100 µM (inactive)
GI50 [41]: > 100 µM (inactive)
GI50 [42]: > 100 µM (inactive)
GI50 [43]: > 100 µM (inactive)
GI50 [44]: > 100 µM (inactive)
GI50 [45]: > 100 µM (inactive)
GI50 [46]: > 100 µM (inactive)
GI50 [47]: 38.5 µM (inactive)
GI50 [48]: 8.32 µM (inactive)

C1CCN2CC3CCCN4CCCC(C2C1)C34 (stereo not drawn)
GI50 [49]: > 100 µM (inactive)
GI50 [50]: > 100 µM (inactive)
GI50 [1]: > 100 µM (inactive)
GI50 [2]: > 100 µM (inactive)
GI50 [3]: > 100 µM (inactive)
GI50 [4]: > 100 µM (inactive)
GI50 [5]: > 100 µM (inactive)
GI50 [6]: > 100 µM (inactive)
GI50 [51]: > 100 µM (inactive)
GI50 [7]: > 100 µM (inactive)
GI50 [8]: > 100 µM (inactive)
GI50 [9]: > 100 µM (inactive)
GI50 [10]: > 100 µM (inactive)
GI50 [11]: > 100 µM (inactive)
GI50 [52]: > 100 µM (inactive)
GI50 [12]: > 100 µM (inactive)
GI50 [13]: > 100 µM (inactive)
GI50 [53]: > 100 µM (inactive)
GI50 [14]: 50.1 µM (inactive)
GI50 [15]: > 100 µM (inactive)
GI50 [16]: > 100 µM (inactive)
GI50 [17]: > 100 µM (inactive)
GI50 [18]: > 100 µM (inactive)
GI50 [19]: > 100 µM (inactive)
GI50 [20]: > 100 µM (inactive)
GI50 [54]: > 100 µM (inactive)
GI50 [21]: > 100 µM (inactive)
GI50 [22]: > 100 µM (inactive)
GI50 [23]: > 100 µM (inactive)
GI50 [24]: > 100 µM (inactive)
GI50 [25]: > 100 µM (inactive)
GI50 [26]: > 100 µM (inactive)
GI50 [27]: > 100 µM (inactive)
GI50 [28]: > 100 µM
GI50 [29]: > 100 µM (inactive)
GI50 [30]: > 100 µM (inactive)
GI50 [31]: > 100 µM (inactive)
GI50 [32]: > 100 µM (inactive)
GI50 [33]: > 100 µM (inactive)
GI50 [34]: > 100 µM (inactive)
GI50 [35]: > 100 µM (inactive)
GI50 [36]: > 100 µM (inactive)
GI50 [37]: > 100 µM (inactive)
GI50 [55]: > 100 µM (inactive)
GI50 [38]: > 100 µM (inactive)
GI50 [39]: > 100 µM (inactive)
GI50 [40]: > 100 µM (inactive)
GI50 [56]: > 100 µM (inactive)
GI50 [41]: > 100 µM (inactive)
GI50 [42]: > 100 µM (inactive)
GI50 [43]: > 100 µM (inactive)
GI50 [57]: > 100 µM (inactive)
GI50 [45]: > 100 µM (inactive)
GI50 [46]: > 100 µM (inactive)
GI50 [58]: > 100 µM (inactive)
GI50 [47]: > 100 µM (inactive)
GI50 [48]: > 100 µM (inactive)

N/C(=N\Nc1ccc(Cl)cc1)c1cnccn1
GI50 [49]: 84.1 µM (inactive)
GI50 [1]: 28.6 µM (inactive)
GI50 [2]: > 100 µM (inactive)
GI50 [59]: 29.1 µM (inactive)
GI50 [3]: > 100 µM (inactive)
GI50 [4]: > 100 µM (inactive)
GI50 [5]: > 100 µM (inactive)
GI50 [6]: 3.85 µM (inactive)
GI50 [51]: > 100 µM (inactive)
GI50 [7]: 37.2 µM (inactive)
GI50 [8]: > 100 µM (inactive)
GI50 [9]: 5.71 µM (inactive)
GI50 [10]: 10.4 µM (inactive)
GI50 [11]: 32.3 µM (inactive)
GI50 [52]: > 100 µM (inactive)
GI50 [12]: 13.2 µM (inactive)
GI50 [13]: 5.04 µM (inactive)
GI50 [53]: > 100 µM (inactive)
GI50 [14]: > 100 µM (inactive)
GI50 [15]: 64.3 µM (inactive)
GI50 [16]: > 100 µM (inactive)
GI50 [17]: > 100 µM (inactive)
GI50 [18]: 18 µM (inactive)
GI50 [19]: 22.9 µM (inactive)
GI50 [20]: 38.5 µM (inactive)
GI50 [54]: > 100 µM (inactive)
GI50 [21]: > 100 µM (inactive)
GI50 [22]: > 100 µM (inactive)
GI50 [23]: 73.6 µM (inactive)
GI50 [24]: > 100 µM (inactive)
GI50 [25]: 78.3 µM (inactive)
GI50 [26]: 16.3 µM (inactive)
GI50 [27]: > 100 µM (inactive)
GI50 [28]: 21.4 µM
GI50 [29]: 44 µM (inactive)
GI50 [30]: 48.8 µM (inactive)
GI50 [31]: > 100 µM (inactive)
GI50 [32]: 6.64 µM (inactive)
GI50 [33]: > 100 µM (inactive)
GI50 [34]: 3.48 µM (inactive)
GI50 [35]: 85.5 µM (inactive)
GI50 [36]: > 100 µM (inactive)
GI50 [37]: 28.3 µM (inactive)
GI50 [55]: > 100 µM (inactive)
GI50 [38]: > 100 µM (inactive)
GI50 [39]: > 100 µM (inactive)
GI50 [40]: 58.1 µM (inactive)
GI50 [56]: 81.7 µM (inactive)
GI50 [41]: 13 µM (inactive)
GI50 [42]: 22.4 µM (inactive)
GI50 [43]: > 100 µM (inactive)
GI50 [44]: 50.7 µM (inactive)
GI50 [57]: 28.3 µM (inactive)
GI50 [45]: 21.1 µM (inactive)
GI50 [46]: 95.9 µM (inactive)
GI50 [58]: 68.7 µM (inactive)
GI50 [47]: 39.8 µM (inactive)
GI50 [48]: 54.7 µM (inactive)
